Measurements taken from patent publication US10273290B2, “Hydrocarbon double-stapled stabilized HIV-1 GP41 heptad repeat domain peptides” (DANA-FARBER CANCER INSTITUTE, INC., priority 2009, dated 2019).
Bridge positions count the residues as written; N and C are the ends. Square brackets hold non-standard residues; d marks the D form. Peptide text beside a SMILES is read from it. S5 = C=CCCC[C@](C)(N)C(=O)O; Nle = CCCC[C@H](N)C(=O)O

Tests used:
[1] = target: T1, chymotrypsin (Bos taurus, UniProt P00766); experiment: Protease resistance assay, chymotrypsin (LC/MS); type: in vitro ADME; conditions: pH 7.4, 0.5 chymotrypsin, peptide 25 μM
T1 construct: purchased Sigma
Method: The DAD signal was set to 280 nm with an 8 nm bandwidth and MSD set to scan mode with one channel at (M+2H)/2, +1 mass units and the other at (M+3H)/3, +1 mass units. Integration of each MSD signal yielded areas under the curve of >10^8 counts. Reaction samples were composed of 5 μL peptide in DMSO (1 mM stock) and 195 μL of buffer consisting of 50 mM phosphate buffer pH 7.4 containing 2 mM CaCl2. Upon injection of the 0 hr time point sample, 2 μL of 50 ng/μL chymotrypsin (Sigma) was added and the amount of intact peptide quantitated by serial injection over time. An internal control of acetylated tryptophan carboxamide at a concentration of 100 μM was used to normalize each MSD data point. A plot of MSD area versus time yielded an exponential decay curve and half-lives were determined by nonlinear regression analysis using Prism software (GraphPad).

[2] = system: pepsin; experiment: Protease resistance assay, pepsin at pH 2; conditions: pepsin (isolated protease) in buffer, pH 2
Method: The DAD signal was set to 280 nm with an 8 nm bandwidth and MSD set to scan mode with one channel at (M+2H)/2, +1 mass units and the other at (M+3H)/3, +1 mass units. […] Reaction samples were composed of 5 μL peptide in DMSO (1 mM stock) and 195 μL of buffer consisting of 50 mM phosphate buffer pH 7.4 containing 2 mM CaCl2. Upon injection of the 0 hr time point sample, 2 μL of 50 ng/μL chymotrypsin (Sigma) was added and the amount of intact peptide quantitated by serial injection over time. An internal control of acetylated tryptophan carboxamide at a concentration of 100 μM was used to normalize each MSD data point. A plot of MSD area versus time yielded an exponential decay curve and half-lives were determined by nonlinear regression analysis using Prism software (GraphPad). The assay was also performed using trypsin and pepsin in their appropriate buffer conditions.

[3] = system: resistant primary R5 isolate YU2; experiment: Luciferase-based HIV-1 infectivity assay, YU2; type: cell-based; conditions: compared to T649v
Text: Also the direct inhibitory activity of modified polypeptides and the antibodies targeted thereto can be quantified based upon their capacity to directly block HIV infection of CD4-positive and CCR5-expressing canine thymus cells. Recombinant HIV-1 viruses (eg. HXBc2, YU2, and additional strains available through the NIH AIDS Research and Reference Reagent Program) expressing firefly luciferase and containing the indicated envelope glycoproteins can be used to infect Cf2Th-CD4-CCR5/CXCR4 cells in the presence of serially diluted modified HIV-1 gp41 polypeptides or antibodies targeted thereto After 48 hours, the cells are lysed and luciferase activity is quantified (Si, Z. H., M. Cayabyab, and J. Sodroski, Journal of Virology, 2001. 75(9): p. 4208-4218 Si, Z. H., et al., PNAS, 2004. 101(14): p. 5036-5041). The identical experiment is performed with the amphotropic murine leukemia virus (AMLV), to monitor for any nonspecific effects of the modified polypeptides or antibodies. […]
HIV-1 infectivity assays were performed using known methods (Madani et al., 2007 Inhibition of human immunodeficiency virus envelope glycoprotein-mediated single cell lysis by low-molecular-weight antagonists of viral entry. J Virol, 81: 532-538; and Si et al., 2001 Envelope glycoprotein determinants of neutralization resistance in a simian-human immunodeficiency virus (SHIV-HXBc2P 3.2) derived by passage in monkeys. J Virol, 75:4208-4218; both incorporated herein by reference). […] D-luciferin (50 μL of 1 mM stock in 100 μL luciferin buffer) is then added to each well and luciferase activity measured using a luminometer (EG&G Berthold).
To assess the functional impact of hydrocarbon stapling on gp41-based fusion inhibitor activity, SAH-gp41 peptides were tested and compared to their unmodified counterparts in a luciferase-based HIV-1 infectivity assay. Recombinant HIV-1 bearing the envelope glycoproteins from three distinct HIV-1 strains, HXBc2, ADA, and HXBc2P 3.2, and a negative control virus bearing the amphotropic murine leukemia virus (A-MLV) envelope glycoproteins, were evaluated. […]

[4] = Chymotrypsin, pH 7
Text: Table printed on a drawing sheet, FIG. 17C
Title: Chymotrypsin, pH 7
First reader's note: The table also serves as the legend of the plot of fraction intact over time; the line and marker symbols are left out.

[5] = Circular dichroism, α-helical content; type: physicochemical
Method: The α-helicity of stapled modified polypeptides was compared to their unmodified counterparts by circular dichroism. CD spectra were obtained on an Aviv spectropolarimeter at 20° C. using the following standard measurement parameters: wavelength, 190-260 nm; step resolution, 0.5 nm; speed, 20 nm/sec; accumulations, 10; response, 1 sec; bandwidth, 1 nm; path length, 0.1 cm. The α-helical content of each peptide was calculated by dividing the mean residue ellipticity [θ]222obs, by the reported [θ]222obs for a model helical peptide (Forood, B., E. J. Feliciano, and K. P. Nambiar, PNAS, 1993. 90(3): p. 838-842; J. Martin Scholtz, Biopolymers, 1991. 31(13): p. 1463-1470; Lawless, M. K., et al., Biochemistry, 1996. 35(42): p. 13697-13708) or using, for example, the Aviv machine using CDNN software developed by Brohm in order to deduce five different secondary structure fractions (helix, parallel and antiparallel beta-sheet, beta-turn and random coil). Protein Engineering, 1992. 5(3); p. 191-195
In order to evaluate secondary structure improvements of hydrocarbon-stapled peptides, we record and analyze circular dichroism (CD) spectra on an Aviv Biomedical spectrometer (model 410), as described above. […] The CD spectra are initially plotted as wavelength versus millidegree. […] After conversion to mean residue ellipticity, percent α-helicity can be calculated using the equation, % helicity=100×[θ]222/^max[θ]222, where ^max[θ]222=−40,000×[1−(2.5/number of amino acid residues)]. We also employ the curve-fitting CDDN software that is bundled with our spectrometer to calculate the relative fractions of secondary structure including α-helix, parallel and antiparallel β-sheet, β-turn and random coil.

| Structure (SMILES) | Half-Life [1] | half-life at 25 μM [2] | anti-YU2 activity, in words [3] | Half-Life [4] | % helicity at pH 2 ([5]; pH 2) | % helicity at pH 7 ([5]; pH 7) |
| --- | --- | --- | --- | --- | --- | --- |
| CCCC[C@H](NC(C)=O)C(=O)N[C@H](C(=O)N[C@@H](Cc1c[nH]c2ccccc12)C(=O)N[C@@]1(C)CCCC=CCCC[C@@](C)(C(=O)N[C@@H](CCC(=O)O)C(=O)N[C@H](C(=O)N[C@@H](CC(N)=O)C(=O)N[C@@H](CC(N)=O)C(=O)N[C@@H](Cc2ccc(O)cc2)C(=O)N[C@H](C(=O)N[C@@H](CO)C(=O)N[C@@H](CC(C)C)C(=O)N[C@H](C(=O)N[C@@H](Cc2c[nH]cn2)C(=O)N[C@@H](CO)C(=O)N[C@@H](CC(C)C)C(=O)N[C@H](C(=O)N[C@@H](CCC(=O)O)C(=O)N[C@@H](CCC(=O)O)C(=O)N[C@@H](CO)C(=O)N[C@@H](CCC(N)=O)C(=O)N[C@@H](CC(N)=O)C(=O)N[C@@H](CCC(N)=O)C(=O)N[C@@H](CCC(N)=O)C(=O)N[C@@H](CCC(=O)O)C(=O)N[C@@H](CCCCN)C(=O)N[C@@H](CC(N)=O)C(=O)N[C@@H](CCC(=O)O)C(=O)N[C@@H](CCC(N)=O)C(=O)N[C@@H](CCC(=O)O)C(=O)N[C@@H](CC(C)C)C(=O)N[C@@H](CC(C)C)C(=O)N[C@@H](CCC(=O)O)C(N)=O)[C@@H](C)CC)[C@@H](C)CC)[C@@H](C)O)[C@@H](C)CC)NC(=O)[C@H](CC(=O)O)NC(=O)[C@H](Cc2c[nH]c3ccccc23)NC(=O)[C@H](CCC(=O)O)NC1=O)[C@@H](C)O [SAH-gp41(626-662)(A)] (Ac-[Nle]TW[S5]EWD[S5]EINNYTSLIHSLIEESQNQQEKNEQELLE-NH2; staple 4-8; N-terminus and C-terminus assumed) | 1.32 h | 1.97 h | enhanced anti-YU2 activity | 1.93 h |  |  |
| CCCC[C@H](NC(C)=O)C(=O)N[C@H](C(=O)N[C@@H](Cc1c[nH]c2ccccc12)C(=O)N[C@@H](CCCC)C(=O)N[C@@H](CCC(=O)O)C(=O)N[C@@H](Cc1c[nH]c2ccccc12)C(=O)N[C@@H](CC(=O)O)C(=O)N[C@@H](CCCNC(=N)N)C(=O)N[C@@H](CCC(=O)O)C(=O)N[C@H](C(=O)N[C@@H](CC(N)=O)C(=O)N[C@@H](CC(N)=O)C(=O)N[C@@H](Cc1ccc(O)cc1)C(=O)N[C@H](C(=O)N[C@@H](CO)C(=O)N[C@@H](CC(C)C)C(=O)N[C@H](C(=O)N[C@@H](Cc1c[nH]cn1)C(=O)N[C@@H](CO)C(=O)N[C@@H](CC(C)C)C(=O)N[C@H](C(=O)N[C@@H](CCC(=O)O)C(=O)N[C@@H](CCC(=O)O)C(=O)N[C@@H](CO)C(=O)N[C@@H](CCC(N)=O)C(=O)N[C@@H](CC(N)=O)C(=O)N[C@@H](CCC(N)=O)C(=O)N[C@@]1(C)CCCC=CCCC[C@@](C)(C(=O)N[C@@H](CCC(N)=O)C(=O)N[C@@H](CCC(=O)O)C(=O)N[C@@H](CC(C)C)C(=O)N[C@@H](CC(C)C)C(=O)N[C@@H](CCC(=O)O)C(N)=O)NC(=O)[C@H](CC(N)=O)NC(=O)[C@H](CCCCN)NC(=O)[C@H](CCC(=O)O)NC1=O)[C@@H](C)CC)[C@@H](C)CC)[C@@H](C)O)[C@@H](C)CC)[C@@H](C)O [SAH-gp41(626-662)(F)] (Ac-[Nle]TW[Nle]EWDREINNYTSLIHSLIEESQNQ[S5]EKN[S5]QELLE-NH2; staple 28-32; N-terminus and C-terminus assumed) | 1.7 h | 2.15 h | enhanced anti-YU2 activity | 1.28 h | 82% | 63% |
